According to ChEMBL document CHEMBL3885881, “DrugMatrix”:

Species: Rattus norvegicus
Test: DrugMatrix - Regimen: Daily Repeat
Assay type: toxicity, organism-based, Sprague-Dawley
Parameters: regimen Daily Repeat, gender Male, age 6-8 weeks
Conditions: in vivo, iv, […], vehicle 100 % SALINE; for ALANINE AMINOTRANSFERASE / ALBUMIN / ALKALINE PHOSPHATASE / ASPARTATE AMINOTRANSFERASE / BLOOD UREA NITROGEN / CARBON DIOXIDE / CHLORIDE / CHOLESTEROL / CREATINE PHOSPHOKINASE / CREATININE / GLUCOSE / LACTATE DEHYDROGENASE / LIPASE / PHOSPHORUS / POTASSIUM / SODIUM / TOTAL BILIRUBIN / TOTAL PROTEIN / URIC ACID: tissue Plasma; for ABSOLUTE BASOPHIL / ABSOLUTE EOSINOPHIL / ABSOLUTE LYMPHOCYTE / ABSOLUTE MONOCYTE / ABSOLUTE SEGMENTED NEUTROPHIL / BASOPHIL / EOSINOPHIL / ERYTHROCYTE COUNT / HEMATOCRIT / HEMOGLOBIN / LEUKOCYTE COUNT / LYMPHOCYTE / MEAN CORPUSCULAR HEMOGLOBIN / MEAN CORPUSCULAR HEMOGLOBIN CONCENTRATION / MEAN CORPUSCULAR VOLUME / MONOCYTE / NEUTROPHIL / NUCLEATED RED BLOOD CELLS / PLATELET COUNT: tissue Blood
[1] = 72 h, dose 0.0033 mg/Kg, dose level Low, time 3 day
[2] = 72 h, dose 0.033 mg/Kg, dose level High, time 3 day
[3] = 120 h, dose 0.0033 mg/Kg, dose level Low, time 5 day
[4] = 120 h, dose 0.033 mg/Kg, dose level High, time 5 day

Question: With `COc1cc2c3cc1Oc1cc(ccc1O)C[C@@H]1c4c(cc(OC)c(O)c4Oc4ccc(cc4)C[C@@H]3N(C)CC2)CC[N+]1(C)C.[Cl-]` as the compound, how does the “ALANINE AMINOTRANSFERASE” value [1] read?
Answer: 58 u/L

Question: What about the ALBUMIN [1] of the same compound?
Answer: 4.23 G/DL

Question: And the “ALKALINE PHOSPHATASE” value [1]?
Answer: 467.33 u/L

Question: And the “ASPARTATE AMINOTRANSFERASE” value [1]?
Answer: 94 u/L

Question: What about the “BLOOD UREA NITROGEN” value [1] of the same compound?
Answer: 17 mg/dL

Question: And the “CARBON DIOXIDE” value [1]?
Answer: 33 mmol/L

Question: What about the CHLORIDE [1] of the same compound?
Answer: 101 MEQ/L

Question: What about the CHOLESTEROL [1] of the same compound?
Answer: 69.33 mg/dL

Question: What about the “CREATINE PHOSPHOKINASE” value [1] of the same compound?
Answer: 839.67 u/L

Question: And the CREATININE [1]?
Answer: 0.22 mg/dL

Question: And the GLUCOSE [1]?
Answer: 165 mg/dL

Question: And the “LACTATE DEHYDROGENASE” value [1]?
Answer: 138 u/L

Question: What about the LIPASE [1] of the same compound?
Answer: 8.33 u/L

Question: What about the PHOSPHORUS [1] of the same compound?
Answer: 10.83 mg/dL

Question: What about the POTASSIUM [1] of the same compound?
Answer: 5.81 MEQ/L

Question: And the SODIUM [1]?
Answer: 143.17 MEQ/L

Question: And the “TOTAL BILIRUBIN” value [1]?
Answer: 0.2 mg/dL

Question: What about the “TOTAL PROTEIN” value [1] of the same compound?
Answer: 5.87 G/DL

Question: And the “URIC ACID” value [1]?
Answer: 0.9 mg/dL

Question: What about the “ALANINE AMINOTRANSFERASE” value [2] of the same compound?
Answer: 56 u/L

Question: What about the ALBUMIN [2] of the same compound?
Answer: 3.97 G/DL

Question: And the “ALKALINE PHOSPHATASE” value [2]?
Answer: 312.33 u/L

Question: What about the “ASPARTATE AMINOTRANSFERASE” value [2] of the same compound?
Answer: 91.67 u/L

Question: And the “BLOOD UREA NITROGEN” value [2]?
Answer: 16.33 mg/dL

Question: And the “CARBON DIOXIDE” value [2]?
Answer: 28 mmol/L

Question: What about the CHLORIDE [2] of the same compound?
Answer: 101.33 MEQ/L

Question: And the CHOLESTEROL [2]?
Answer: 75.33 mg/dL

Question: What about the “CREATINE PHOSPHOKINASE” value [2] of the same compound?
Answer: 431.33 u/L

Question: What about the CREATININE [2] of the same compound?
Answer: 0.2 mg/dL

Question: And the GLUCOSE [2]?
Answer: 169 mg/dL

Question: And the “LACTATE DEHYDROGENASE” value [2]?
Answer: 240.33 u/L

Question: What about the LIPASE [2] of the same compound?
Answer: 12.67 u/L

Question: What about the PHOSPHORUS [2] of the same compound?
Answer: 11.4 mg/dL

Question: What about the POTASSIUM [2] of the same compound?
Answer: 5.83 MEQ/L

Question: And the SODIUM [2]?
Answer: 141.23 MEQ/L

Question: And the “TOTAL BILIRUBIN” value [2]?
Answer: 0.2 mg/dL

Question: What about the “TOTAL PROTEIN” value [2] of the same compound?
Answer: 5.67 G/DL

Question: What about the “URIC ACID” value [2] of the same compound?
Answer: 1.5 mg/dL

Question: What about the “ABSOLUTE BASOPHIL” value [3] of the same compound?
Answer: 0 CELLS/uL

Question: What about the “ABSOLUTE EOSINOPHIL” value [3] of the same compound?
Answer: 0 CELLS/uL

Question: What about the “ABSOLUTE LYMPHOCYTE” value [3] of the same compound?
Answer: 11354.67 CELLS/uL

Question: And the “ABSOLUTE MONOCYTE” value [3]?
Answer: 87 CELLS/uL

Question: What about the “ABSOLUTE SEGMENTED NEUTROPHIL” value [3] of the same compound?
Answer: 958.33 CELLS/uL

Question: What about the BASOPHIL [3] of the same compound?
Answer: 0%

Question: What about the EOSINOPHIL [3] of the same compound?
Answer: 0%

Question: And the “ERYTHROCYTE COUNT” value [3]?
Answer: 5.2 x10E6/uL

Question: And the HEMATOCRIT [3]?
Answer: 33.13%

Question: And the HEMOGLOBIN [3]?
Answer: 13.43 G/DL

Question: And the “LEUKOCYTE COUNT” value [3]?
Answer: 12.4 x10E3/uL

Question: What about the LYMPHOCYTE [3] of the same compound?
Answer: 91.67%

Question: And the “MEAN CORPUSCULAR HEMOGLOBIN” value [3]?
Answer: 25.8 pg

Question: What about the “MEAN CORPUSCULAR HEMOGLOBIN CONCENTRATION” value [3] of the same compound?
Answer: 40.53 G/DL

Question: What about the “MEAN CORPUSCULAR VOLUME” value [3] of the same compound?
Answer: 63.7 fL

Question: And the MONOCYTE [3]?
Answer: 0.67%

Question: And the NEUTROPHIL [3]?
Answer: 7.67%

Question: And the “NUCLEATED RED BLOOD CELLS” value [3]?
Answer: 0 /100WBC

Question: What about the “PLATELET COUNT” value [3] of the same compound?
Answer: 1167.67 x10E3/uL

Question: And the “ABSOLUTE BASOPHIL” value [4]?
Answer: 0 CELLS/uL

Question: And the “ABSOLUTE EOSINOPHIL” value [4]?
Answer: 146 CELLS/uL

Question: And the “ABSOLUTE LYMPHOCYTE” value [4]?
Answer: 11010.33 CELLS/uL

Question: What about the “ABSOLUTE MONOCYTE” value [4] of the same compound?
Answer: 173 CELLS/uL

Question: And the “ABSOLUTE SEGMENTED NEUTROPHIL” value [4]?
Answer: 1104 CELLS/uL

Question: And the BASOPHIL [4]?
Answer: 0%

Question: What about the EOSINOPHIL [4] of the same compound?
Answer: 1%

Question: And the “ERYTHROCYTE COUNT” value [4]?
Answer: 5.51 x10E6/uL

Question: What about the HEMATOCRIT [4] of the same compound?
Answer: 34.03%

Question: And the HEMOGLOBIN [4]?
Answer: 13.57 G/DL

Question: What about the “LEUKOCYTE COUNT” value [4] of the same compound?
Answer: 12.43 x10E3/uL

Question: And the LYMPHOCYTE [4]?
Answer: 88.67%

Question: What about the “MEAN CORPUSCULAR HEMOGLOBIN” value [4] of the same compound?
Answer: 24.63 pg

Question: What about the “MEAN CORPUSCULAR HEMOGLOBIN CONCENTRATION” value [4] of the same compound?
Answer: 39.87 G/DL

Question: What about the “MEAN CORPUSCULAR VOLUME” value [4] of the same compound?
Answer: 61.77 fL

Question: What about the MONOCYTE [4] of the same compound?
Answer: 1.33%

Question: What about the NEUTROPHIL [4] of the same compound?
Answer: 9%

Question: What about the “NUCLEATED RED BLOOD CELLS” value [4] of the same compound?
Answer: 0 /100WBC

Question: What about the “PLATELET COUNT” value [4] of the same compound?
Answer: 1282.67 x10E3/uL

Question: And the “ALANINE AMINOTRANSFERASE” value [3]?
Answer: 55.67 u/L

Question: What about the ALBUMIN [3] of the same compound?
Answer: 4.07 G/DL

Question: What about the “ALKALINE PHOSPHATASE” value [3] of the same compound?
Answer: 352.67 u/L

Question: What about the “ASPARTATE AMINOTRANSFERASE” value [3] of the same compound?
Answer: 91.67 u/L

Question: And the “BLOOD UREA NITROGEN” value [3]?
Answer: 20.67 mg/dL

Question: What about the “CARBON DIOXIDE” value [3] of the same compound?
Answer: 28 mmol/L

Question: And the CHLORIDE [3]?
Answer: 102.67 MEQ/L

Question: And the CHOLESTEROL [3]?
Answer: 72.67 mg/dL

Question: What about the “CREATINE PHOSPHOKINASE” value [3] of the same compound?
Answer: 402.33 u/L

Question: And the CREATININE [3]?
Answer: 0.22 mg/dL

Question: And the GLUCOSE [3]?
Answer: 169 mg/dL

Question: What about the “LACTATE DEHYDROGENASE” value [3] of the same compound?
Answer: 354.67 u/L

Question: And the LIPASE [3]?
Answer: 10 u/L

Question: And the PHOSPHORUS [3]?
Answer: 11.7 mg/dL

Question: And the POTASSIUM [3]?
Answer: 6.36 MEQ/L

Question: What about the SODIUM [3] of the same compound?
Answer: 144.1 MEQ/L

Question: What about the “TOTAL BILIRUBIN” value [3] of the same compound?
Answer: 0.17 mg/dL

Question: And the “TOTAL PROTEIN” value [3]?
Answer: 5.8 G/DL

Question: What about the “URIC ACID” value [3] of the same compound?
Answer: 1.53 mg/dL

Question: And the “ALANINE AMINOTRANSFERASE” value [4]?
Answer: 66.33 u/L

Question: What about the ALBUMIN [4] of the same compound?
Answer: 4.17 G/DL

Question: And the “ALKALINE PHOSPHATASE” value [4]?
Answer: 366.33 u/L

Question: And the “ASPARTATE AMINOTRANSFERASE” value [4]?
Answer: 97.67 u/L

Question: And the “BLOOD UREA NITROGEN” value [4]?
Answer: 17.33 mg/dL

Question: What about the “CARBON DIOXIDE” value [4] of the same compound?
Answer: 29.33 mmol/L

Question: And the CHLORIDE [4]?
Answer: 101.33 MEQ/L

Question: And the CHOLESTEROL [4]?
Answer: 68.67 mg/dL

Question: And the “CREATINE PHOSPHOKINASE” value [4]?
Answer: 303.67 u/L

Question: And the CREATININE [4]?
Answer: 0.15 mg/dL

Question: What about the GLUCOSE [4] of the same compound?
Answer: 156.33 mg/dL

Question: What about the “LACTATE DEHYDROGENASE” value [4] of the same compound?
Answer: 446 u/L

Question: And the LIPASE [4]?
Answer: 10.67 u/L

Question: And the PHOSPHORUS [4]?
Answer: 11.53 mg/dL

Question: And the POTASSIUM [4]?
Answer: 5.71 MEQ/L

Question: What about the SODIUM [4] of the same compound?
Answer: 142.9 MEQ/L

Question: What about the “TOTAL BILIRUBIN” value [4] of the same compound?
Answer: 0.2 mg/dL

Question: What about the “TOTAL PROTEIN” value [4] of the same compound?
Answer: 5.73 G/DL

Question: And the “URIC ACID” value [4]?
Answer: 1.33 mg/dL
